This is an account of results in PubChem BioAssay AID228 (DTP/NCI, 2004).

Each structure is given as a SMILES string. Several values for one entry are separate records, joined by “and”; a condition that tells them apart may be missing. Equal entries are not always repeated. Inconclusive results are not listed. Starred links: 1 amine or outer side, 2 acyl side, 3 side chain; linkers in the order of their positions; H or OH if unused. Positions of bridges follow the written chain, without caps; N, C: chain ends. Non-standard residues stand in square brackets, D forms with d. Residues, ends and D or L forms follow the SMILES beside them. Chains are numbered I, II in the order given. Actinocin(9to1) = Cc1c2oc3c(C)ccc(C(=O)[*:1])c3nc-2c(C(=O)[*:2])c(N)c1=O; aThr = C[C@H](O)[C@H](N)C(=O)O; NMeV = CN[C@H](C(=O)O)C(C)C; Sar = CNCC(=O)O

The assay deals with BDF1 mice, Friend leukemia sc, tumor weight T/C. Description: NCI In Vivo Anticancer Drug Screen. Data for tumor model Friend Virus Leukemia (Solid) (subcutaneous) in B6D2F1 (BDF1) mice. The note with it: endpoint: mean tumor weight, higher = larger tumour. The method, then: The antitumor activity of compounds was measured in mice bearing transplantable tumors. Survival or tumor size were measured and the results are expressed as the measurement made in the treated group (T) divided by the measurement made in the vehicle treated control group (C). The tumor model used in this assay is Friend Virus Leukemia (Solid) (subcutaneous) in B6D2F1 (BDF1) mice

Where [1] appears, read: dose: 250.0 mg/kg/injection, schedule: Q01DX011 (ip), vehicle: carboxymethylcellulose (CMC).

On to `CNC(C)=O`, for which the T/C reads like this: under setting [1], 104 % of control; (dose: 500.0 mg/kg/injection, schedule: Q01DX011 (ip), vehicle: carboxymethylcellulose (CMC)) 99 % of control and 107 % of control; (dose: 1000.0 mg/kg/injection, schedule: Q01DX011 (ip), vehicle: carboxymethylcellulose (CMC)) 75 % of control and 76 % of control.

With `CSc1ncnc2nc[nH]c12`, the T/C runs as follows: (dose: 5.7 mg/kg/injection, schedule: Q01DX011 (ip), vehicle: carboxymethylcellulose (CMC)) 155 % of control; (dose: 11.5 mg/kg/injection, schedule: Q01DX011 (ip), vehicle: carboxymethylcellulose (CMC)) 115 % of control; (dose: 22.5 mg/kg/injection, schedule: Q01DX011 (ip), vehicle: carboxymethylcellulose (CMC)) 59 % of control and 81 % of control; (dose: 45.0 mg/kg/injection, schedule: Q01DX011 (ip), vehicle: carboxymethylcellulose (CMC)) 35 % of control and 42 % of control; (dose: 90.0 mg/kg/injection, schedule: Q01DX011 (ip), vehicle: carboxymethylcellulose (CMC)) 39 % of control.

As for `Cc1cc(N(CCCl)CCCl)ccc1C=Nc1ccccc1-c1ccccc1`, the T/C is, setting by setting: (dose: 5.0 mg/kg/injection, schedule: Q01DX011 (ip), vehicle: carboxymethylcellulose (CMC)) 54 % of control; (dose: 10.0 mg/kg/injection, schedule: Q01DX011 (ip), vehicle: carboxymethylcellulose (CMC)) 70 % of control; (dose: 20.0 mg/kg/injection, schedule: Q01DX011 (ip), vehicle: carboxymethylcellulose (CMC)) 104 % of control; (dose: 40.0 mg/kg/injection, schedule: Q01DX011 (ip), vehicle: carboxymethylcellulose (CMC)) 60 % of control; (dose: 80.0 mg/kg/injection, schedule: Q01DX011 (ip), vehicle: carboxymethylcellulose (CMC)) 77 % of control.

As for `CCOC(N)=O`, the T/C is 68 % of control (dose: 37.5 mg/kg/injection, schedule: Q01DX011 (ip), vehicle: carboxymethylcellulose (CMC)); 110 % of control (dose: 62.12 mg/kg/injection, schedule: Q01DX011 (ip), vehicle: carboxymethylcellulose (CMC)); 58 % of control (dose: 62.5 mg/kg/injection, schedule: Q01DX011 (ip), vehicle: carboxymethylcellulose (CMC)); 50 % of control (dose: 75.0 mg/kg/injection, schedule: Q01DX011 (ip), vehicle: carboxymethylcellulose (CMC)); 67 % of control (dose: 125.0 mg/kg/injection, schedule: Q01DX011 (ip), vehicle: carboxymethylcellulose (CMC)); 95 % of control (dose: 125.25 mg/kg/injection, schedule: Q01DX011 (ip), vehicle: carboxymethylcellulose (CMC)). Also, the T/C reads like this: (dose: 150.0 mg/kg/injection, schedule: Q01DX011 (ip), vehicle: carboxymethylcellulose (CMC)) 52 % of control and 36 % of control; under setting [1], 58 % of control and 66 % of control and 50 % of control; (dose: 250.5 mg/kg/injection, schedule: Q01DX011 (ip), vehicle: carboxymethylcellulose (CMC)) 115 % of control; (dose: 300.0 mg/kg/injection, schedule: Q01DX011 (ip), vehicle: carboxymethylcellulose (CMC)) 21 % of control; (dose: 334.0 mg/kg/injection, schedule: Q01DX011 (ip), vehicle: carboxymethylcellulose (CMC)) 56 % of control and 37 % of control; (dose: 450.0 mg/kg/injection, schedule: Q01DX011 (ip), vehicle: carboxymethylcellulose (CMC)) 20 % of control. For the same compound, the T/C runs as follows: (dose: 600.0 mg/kg/injection, schedule: Q01DX011 (ip), vehicle: carboxymethylcellulose (CMC)) 26 % of control; (dose: 800.0 mg/kg/injection, schedule: Q01DX011 (ip), vehicle: carboxymethylcellulose (CMC)) 36 % of control.

In the case of `CN1CCC23c4c5ccc(O)c4OC2C(O)C=CC3C1C5` (stereo not given), the T/C (dose: 62.0 mg/kg/injection, schedule: Q01DX011 (ip), vehicle: saline) is 116 % of control; the T/C (dose: 125.0 mg/kg/injection, schedule: Q01DX011 (ip), vehicle: saline) is 172 % of control; the T/C (dose: 250.0 mg/kg/injection, schedule: Q01DX011 (ip), vehicle: saline) was 118 % of control.

As to `CO[C@@]12[C@H](COC(N)=O)C3=C(C(=O)C(C)=C(N)C3=O)N1C[C@@H]1N[C@@H]12`, the T/C was 48 % of control (dose: 0.06 mg/kg/injection, schedule: Q01DX011 (ip), vehicle: carboxymethylcellulose (CMC)); 66 % of control (dose: 0.1 mg/kg/injection, schedule: Q01DX011 (ip), vehicle: carboxymethylcellulose (CMC)); 56 % of control (dose: 0.13 mg/kg/injection, schedule: Q01DX011 (ip), vehicle: carboxymethylcellulose (CMC)); 77 % of control (dose: 0.2 mg/kg/injection, schedule: Q01DX011 (ip), vehicle: carboxymethylcellulose (CMC)); 35 % of control and 45 % of control (dose: 0.25 mg/kg/injection, schedule: Q01DX011 (ip), vehicle: carboxymethylcellulose (CMC)); 100 % of control (dose: 0.4 mg/kg/injection, schedule: Q01DX011 (ip), vehicle: carboxymethylcellulose (CMC)). For the same compound, the T/C is 28 % of control (dose: 0.5 mg/kg/injection, schedule: Q01DX011 (ip), vehicle: carboxymethylcellulose (CMC)) and 75 % of control (dose: 0.8 mg/kg/injection, schedule: Q01DX011 (ip), vehicle: carboxymethylcellulose (CMC)).

`C[C@]12CC[C@@H]3c4ccc(OC(=O)c5ccccc5)cc4CC[C@H]3[C@@H]1CC[C@@H]2O`: the T/C is, setting by setting: (dose: 77.25 mg/kg/injection, schedule: Q01DX011 (sc), vehicle: steriod suspending solution) 102 % of control; (dose: 154.5 mg/kg/injection, schedule: Q01DX011 (sc), vehicle: steriod suspending solution) 112 % of control.

With `CN=C(N)c1ccc(N=C(N)c2ccc(C(N)=Nc3ccc(C(N)=NC)cc3)cc2)cc1`, the T/C was 182 % of control (dose: 7.5 mg/kg/injection, schedule: Q01DX011 (ip), vehicle: saline); 183 % of control (dose: 10.0 mg/kg/injection, schedule: Q01DX011 (ip), vehicle: saline); 165 % of control (dose: 15.0 mg/kg/injection, schedule: Q01DX011 (ip), vehicle: saline).

Consider `NNC(=O)c1ccncc1`, for which the T/C by setting is: (dose: 15.0 mg/kg/injection, schedule: Q01DX011 (ip), vehicle: carboxymethylcellulose (CMC)) 80 % of control; (dose: 30.0 mg/kg/injection, schedule: Q01DX011 (ip), vehicle: carboxymethylcellulose (CMC)) 75 % of control; (dose: 121.0 mg/kg/injection, schedule: Q01DX011 (ip), vehicle: carboxymethylcellulose (CMC)) 55 % of control.

Take `CC(=O)[C@H]1CC[C@H]2[C@@H]3C[C@H](C)C4=CC(=O)CC[C@]4(C)[C@@]3(F)[C@@H](O)C[C@]12C`: the T/C is, setting by setting: (dose: 6.0 mg/kg/injection, schedule: Q01DX011 (sc), vehicle: steriod suspending solution) 163 % of control; (dose: 8.0 mg/kg/injection, schedule: Q01DX011 (sc), vehicle: steriod suspending solution) 162 % of control; (dose: 12.0 mg/kg/injection, schedule: Q01DX011 (sc), vehicle: steriod suspending solution) 151 % of control; (dose: 16.0 mg/kg/injection, schedule: Q01DX011 (sc), vehicle: steriod suspending solution) 80 % of control; (dose: 50.0 mg/kg/injection, schedule: Q01DX011 (sc), vehicle: steriod suspending solution) 66 % of control and 43 % of control; (dose: 100.0 mg/kg/injection, schedule: Q01DX011 (sc), vehicle: steriod suspending solution) 22 % of control and 47 % of control. Also, the T/C (dose: 200.0 mg/kg/injection, schedule: Q01DX011 (sc), vehicle: steriod suspending solution) is 46 % of control.

As to `Cc1c2oc3c(C)ccc(C(=O)N[C@@H]4C(=O)N[C@H](C(C)C)C(=O)N5CCC[C@H]5C(=O)N(C)CC(=O)N(C)[C@@H](C(C)C)C(=O)O[C@H]4C)c3nc-2c(C(=O)N[C@@H]2C(=O)N[C@H](C(C)C)C(=O)N3CCC[C@H]3C(=O)N(C)CC(=O)N(C)[C@@H](C(C)C)C(=O)O[C@H]2C)c(N)c1=O` (I: [aThr][dV]P[Sar][NMeV] / II: [aThr][dV]P[Sar][NMeV]; ester I:1-I:C, II:1-II:C; linker I:N-II:N via Actinocin(9to1)), the T/C is 86 % of control (dose: 0.03 mg/kg/injection, schedule: Q01DX011 (ip), vehicle: carboxymethylcellulose (CMC)); 38 % of control and 49 % of control (dose: 0.05 mg/kg/injection, schedule: Q01DX011 (ip), vehicle: carboxymethylcellulose (CMC)); 29 % of control (dose: 0.08 mg/kg/injection, schedule: Q01DX011 (ip), vehicle: carboxymethylcellulose (CMC)); 102 % of control (dose: 6.0 micrograms/kg/injection, schedule: Q01DX011 (ip), vehicle: carboxymethylcellulose (CMC)); 93 % of control (dose: 13.0 micrograms/kg/injection, schedule: Q01DX011 (ip), vehicle: carboxymethylcellulose (CMC)); 55 % of control (dose: 20.0 micrograms/kg/injection, schedule: Q01DX011 (ip), vehicle: carboxymethylcellulose (CMC)). Moreover, the T/C (dose: 33.0 micrograms/kg/injection, schedule: Q01DX011 (ip), vehicle: carboxymethylcellulose (CMC)) is 105 % of control.
